From patent US20120123760A1, “METHOD FOR DESIGNING AN APTAMER” (Technology Innovations, LLC, priority 2010, published 2012)

What was measured:
[1] = Fluorescence assay of 6FAM-labelled aptamer bound to DPPC+DPPS liposomes; assay type: binding
Text: (§1) Two of the top-ranked 6-mer DNA designed aptamers targeting PS were chosen for experimental investigations. Both sequences containing fluorescence tags (6FAM is on the 3′ end of the DNA sequence) were obtained from Integrated DNA Technologies, Commercial Park, Coralville Iowa, USA. 96 well assay plates for fluorescence assays using FLUOstar OPTIMA (BMG Labtech GmbH, Offenburg, Germany) were from Corning Inc., New York, USA. Two lipids, 1,2-dipalmitoyl-sn-glycero-3-phosphatidylcholine (DPPC) and 1,2-dipalmitoyl-sn-glycero-3-phospho-L-serine (sodium salt) (DPPS) in chloroform stock and cholesterol (powder) were obtained from Avanti Polar Lipids (Alabaster, Ala., USA). They were used without further purification.
(§2) Two liposomes were prepared for studying binding affinity and specificity. One uses DPPC and DPPS at a 10:1 DPPC/DPPS molar ratio and the second one uses DPPC alone. […] 100 μL from this final solution was loaded into each of the 96 wells on the fluorescence plate to measure fluorescence of the samples. […]
(§3) Both sequences containing fluorescence tags (6FAM is on the 3′ end of the DNA sequence) were obtained from Integrated DNA Technologies, Commercial Park, Coralville Iowa, USA. 96 well assay plates for fluorescence assays using FLUOstar OPTIMA (BMG Labtech GmbH, Offenburg, Germany) were from Corning Inc., New York, USA. […]

[2] = Fluorescence assay of 6FAM-labelled aptamer bound to DPPC alone liposomes (control without PS); assay type: binding; details: FIG. 8 right panel
Text: as §1, §2, §3

With AAAGAC [PS-aptamer II] the “binding affinity (inferred from fluorescence)” value [1] was “relatively better or stronger binding affinity than PS-aptamer I”, the “fluorescence level from bound DNA aptamer” value ([1]; FIG. 8 left panel, aptamer beyond 0.165 nmol) was “higher fluorescence level than PS-aptamer I” and the “fluorescence level from bound DNA aptamer” value [2] was “binds either poorly or not at all”.
